Experimental data: patent US20020032325A1, “4-amino-3-mercapto-1,2,4-triazoles” (priority 1999, published 2002)

Legend:
[1] = target: T1, nitric oxide synthase (Mus musculus, UniProt P29477); test: NOS inhibition assay: nitric oxide (nitrite, Greiss reagent) production from PAM 212 keratinocytes stimulated with gamma interferon; assay type: cell-based; details: 100 U/ml gamma interferon, 72 hours, nitrite in medium
T1 sequence (P29477 1-1144): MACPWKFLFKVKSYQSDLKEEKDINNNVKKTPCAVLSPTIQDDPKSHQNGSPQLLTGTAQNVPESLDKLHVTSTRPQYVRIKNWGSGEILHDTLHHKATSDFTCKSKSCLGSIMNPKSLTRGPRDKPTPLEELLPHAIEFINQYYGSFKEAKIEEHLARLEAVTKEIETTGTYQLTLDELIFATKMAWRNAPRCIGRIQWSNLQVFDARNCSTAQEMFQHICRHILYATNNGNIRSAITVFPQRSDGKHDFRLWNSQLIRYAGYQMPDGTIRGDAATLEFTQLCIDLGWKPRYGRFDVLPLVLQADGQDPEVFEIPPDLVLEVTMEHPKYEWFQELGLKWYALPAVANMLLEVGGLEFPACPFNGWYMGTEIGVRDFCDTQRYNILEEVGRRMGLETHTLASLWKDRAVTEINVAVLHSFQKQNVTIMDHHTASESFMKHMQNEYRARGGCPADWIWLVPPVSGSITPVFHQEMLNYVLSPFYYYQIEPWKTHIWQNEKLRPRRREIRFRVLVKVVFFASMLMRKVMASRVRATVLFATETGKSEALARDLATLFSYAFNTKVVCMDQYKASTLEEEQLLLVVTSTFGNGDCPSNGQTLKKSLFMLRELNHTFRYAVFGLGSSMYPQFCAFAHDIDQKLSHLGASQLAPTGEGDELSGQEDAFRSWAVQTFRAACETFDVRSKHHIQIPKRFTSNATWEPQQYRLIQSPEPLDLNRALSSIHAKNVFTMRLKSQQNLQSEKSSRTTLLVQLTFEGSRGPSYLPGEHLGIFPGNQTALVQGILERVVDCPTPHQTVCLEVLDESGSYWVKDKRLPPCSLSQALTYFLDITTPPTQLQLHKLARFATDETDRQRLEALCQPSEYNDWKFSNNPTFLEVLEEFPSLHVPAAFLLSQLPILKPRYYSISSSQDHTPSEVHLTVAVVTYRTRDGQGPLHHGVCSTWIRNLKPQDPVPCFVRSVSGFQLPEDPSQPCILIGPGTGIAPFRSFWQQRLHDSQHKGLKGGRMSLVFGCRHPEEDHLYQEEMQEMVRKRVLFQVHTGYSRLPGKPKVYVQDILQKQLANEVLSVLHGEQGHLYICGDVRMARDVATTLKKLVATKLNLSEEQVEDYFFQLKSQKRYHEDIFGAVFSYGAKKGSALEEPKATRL

[2] = test system: PAM 212 cells; test: Antiproliferative assay, PAM 212 tumor cells counted with Coulter counter; assay type: cell-based; details: Mus musculus, PAM212, grown 4 to 5 days, read-out: IC50, concentration inhibiting cell growth by 50%
Text: The ability of any one of the compounds according to the present invention to inhibit cell growth is recognized by the scientific community to be directly related to its therapeutic potential as an anticancer agent. This type of growth assay can be used with mammalian cancer cells as well as with pathogenic and non-pathogenic microbes, including, but not limited to, yeasts and bacteria. To assay these compounds for anticancer activity, tumor cells (PAM 212) grown in vitro in monolayer culture flasks were used. […] Triplicate wells on the plates were used to measure control growth and growth of the cells in the presence of each concentration of anticancer agent. The cells were then returned to the incubator. […] The cells from each well on the culture dishes were removed by trypsin treatment and counted with a Coulter counter. After a period of time, the number of cells in each well was determined. The data can be presented as a curve showing the inhibition of tumor cell growth with increasing concentrations of the test compound. […] Each of the compounds according to the present invention was a potent inhibitor of cell growth with the IC50 values being typically in the micromolar concentration range.

| Structure (SMILES) | IC50 [1] | melting point | IC50 [2] |
| --- | --- | --- | --- |
| Fc1ccc(-c2nnc3n2N=C(C(F)(F)F)CS3)cc1 | 30 µM | – | – |
| CC(CCCl)Sc1nnc(-c2cccs2)n1N (stereo not drawn) | – | 196 to 197 °C | – |
| O=[N+]([O-])c1ccccc1C=CC=Nn1c(S)nnc1-c1cccs1 [Compound VIIc] | 12 µM | 214 to 215 °C | 60 µM |
| CSc1nnc(C2CCCCC2)n1N=CC(Br)=Cc1ccccc1 [Compound Xi] | 146 µM | – | – |
| Nn1c(-c2cccs2)n[nH]c1=S [III (R = 2-thienyl), 4-amino-3-mercapto-5-(2-thienyl)-(4H)-1,2,4-triazole] | 77 µM | – | – |
| Nn1c(S)nnc1-c1ccc(F)cc1 [III (R = 4-F—C6H4—)] | 98 µM | – | – |
| Brc1ccccc1-c1nnc2n1N=CC=C(c1ccccc1)S2 [IV (R = 2-Br—C6H4—, R′ = H)] | 87 µM | – | – |
| C1=Nn2c(Cc3ccccc3)nnc2SC(c2ccccc2)=C1 [IV (R = benzyl, R′ = H)] | 52 µM | – | – |
| Fc1ccc(-c2nnc3n2N=CC=C(c2ccccc2)S3)cc1 [IVb] | 21 µM | 217 to 219 °C | – |
| C1=Nn2c(nnc2-c2cccs2)SC(c2ccccc2)=C1 [IVc] | 48 µM | 164 to 166 °C | – |
| CN1C(C=Cc2ccccc2)Sc2nnc(-c3cccs3)n21 (stereo not drawn) [IXa] | 15 µM | 250 to 252 °C | 44 µM |
| CN1C(C=Cc2ccccc2)Sc2nnc(-c3ccco3)n21 (stereo not drawn) [IXd] | 14 µM | 128 to 129.5 °C | 45 µM |
| Cc1nnc2n1N(C)C(C=Cc1ccccc1)S2 (stereo not drawn) [IXf] | 17 µM | 125 to 126 °C | > 100 µM |
| COC(=O)CCSc1nnc(C)n1N [VI (R = methyl, R′ = —CH2—CH2—COOMe)] | 170 µM | – | – |
| Fc1ccc(-c2nnc3n2N=C(c2ccccc2)CS3)cc1 [VIII (R = 4-F—C6H4—, R′ = phenyl)] | > 100 µM | – | – |
| Cc1nnc2n1N=C(C(F)(F)F)CS2 [VIIIc] | > 100 µM | 85 to 86 °C | – |
| Sc1nnc(-c2cccs2)n1N=CC=Cc1ccccc1 [VIIa, 4-imino-(cinnamyl)-3-mercapto-5-(2-thienyl)-4H-1,2,4-triazole] | 35 µM | 206 to 206.5 °C | – |
| COc1ccccc1C=CC=Nn1c(S)nnc1-c1cccs1 [VIIb] | > 100 µM | 227 to 228 °C | – |
| Oc1cccc(C=Nn2c(S)nnc2-c2cccnc2)c1O [VIIr] | 29 µM | – | – |
| CC(CC(=O)Oc1ccccc1)Sc1nnc(-c2cccs2)n1N (stereo not drawn) [VIb] | > 100 µM | 109.5 to 111 °C | – |
| C1=C(c2ccccc2)Sc2nnc(-c3ccccc3)n2NC1 [Va] | 110 µM | 222 to 223 °C | – |
